Experimental data published in US7887784B2, “1-[(2′-substituted)-piperazin-1′ -yl]-isoquinolines as norepinephrine transporter inhibitor therapeutics and positron emission tomography imaging agents” (University of Montana, priority 2007, dated 2011).
pKi: −log10 of the molar value.

Legend:
[1] = molecular target: SERT (Rattus norvegicus, UniProt P31652); experiment: SERT competitive binding, [3H]Citalopram; details: partially purified rat protein, nonspecific Clomipramine, 25° C., 1 h, read-out: Ki of (±)-14, SERT
Chain of SERT (P31652 whole entry): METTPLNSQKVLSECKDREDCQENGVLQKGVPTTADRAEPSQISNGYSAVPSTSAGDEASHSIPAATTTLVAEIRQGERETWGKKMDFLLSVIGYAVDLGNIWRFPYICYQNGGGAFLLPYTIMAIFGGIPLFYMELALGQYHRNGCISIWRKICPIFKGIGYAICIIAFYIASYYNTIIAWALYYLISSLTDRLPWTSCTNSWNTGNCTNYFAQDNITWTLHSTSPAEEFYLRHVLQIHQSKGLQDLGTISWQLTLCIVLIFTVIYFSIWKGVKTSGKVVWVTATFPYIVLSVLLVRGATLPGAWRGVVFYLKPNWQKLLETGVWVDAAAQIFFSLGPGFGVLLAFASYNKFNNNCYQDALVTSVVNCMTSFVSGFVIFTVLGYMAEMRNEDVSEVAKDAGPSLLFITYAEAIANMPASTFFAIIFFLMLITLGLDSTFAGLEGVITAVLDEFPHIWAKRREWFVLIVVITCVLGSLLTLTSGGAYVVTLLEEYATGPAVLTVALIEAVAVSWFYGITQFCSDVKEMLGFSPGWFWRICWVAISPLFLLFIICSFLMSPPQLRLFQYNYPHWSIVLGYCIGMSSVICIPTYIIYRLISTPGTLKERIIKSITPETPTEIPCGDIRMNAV
Source text: (§1) The evaluation of the competitive binding affinities (Ki values) of (±)-14 for the serotonin and dopamine transporter proteins (SERT and DAT, respectively), the beta-adrenergic receptor, and also serotonin 1a and 2a receptors has been made. The competitive binding profiles of (±)-14 at these other CNS sites are summarized in Table 2, where the assay conditions are defined. […] Thus, compound (±)-14 is considered to have potent NET selectivity (Table 1, Example X) relative to the potencies at the other sites as defined per Table 2.

[2] = molecular target: DAT (Rattus norvegicus, UniProt P23977); experiment: DAT competitive binding, [3H]B-CFT; details: partially purified rat protein, nonspecific GBR-12,909, 0° C., 2 h, read-out: Ki of (±)-14, DAT
Chain of DAT (P23977 whole entry): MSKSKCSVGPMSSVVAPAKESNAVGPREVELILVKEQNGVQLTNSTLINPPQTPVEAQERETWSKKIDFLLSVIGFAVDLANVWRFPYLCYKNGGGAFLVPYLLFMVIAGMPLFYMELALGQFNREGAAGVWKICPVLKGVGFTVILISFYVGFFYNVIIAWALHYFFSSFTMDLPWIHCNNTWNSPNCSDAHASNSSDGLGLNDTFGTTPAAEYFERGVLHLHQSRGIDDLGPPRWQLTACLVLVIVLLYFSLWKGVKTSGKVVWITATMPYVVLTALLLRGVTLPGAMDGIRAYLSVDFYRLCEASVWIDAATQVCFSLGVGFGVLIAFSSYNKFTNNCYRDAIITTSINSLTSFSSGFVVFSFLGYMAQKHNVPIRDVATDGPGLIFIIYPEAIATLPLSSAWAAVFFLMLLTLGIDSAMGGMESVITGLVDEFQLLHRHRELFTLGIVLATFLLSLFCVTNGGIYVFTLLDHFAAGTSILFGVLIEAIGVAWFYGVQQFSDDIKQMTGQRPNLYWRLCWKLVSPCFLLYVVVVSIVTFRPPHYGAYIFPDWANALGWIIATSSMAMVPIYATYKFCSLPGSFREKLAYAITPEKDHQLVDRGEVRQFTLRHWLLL
Source text: as §1

[3] = molecular target: 5-HT2A (Homo sapiens, UniProt P28223); experiment: 5-HT2A receptor competitive binding, [3H]Ketanserin; details: partially purified human protein expressed in CHO cells, nonspecific Mianserin, 30° C., 0.5 h, read-out: Ki of (±)-14, 5-HT2A
Chain of 5-HT2A (P28223 whole entry): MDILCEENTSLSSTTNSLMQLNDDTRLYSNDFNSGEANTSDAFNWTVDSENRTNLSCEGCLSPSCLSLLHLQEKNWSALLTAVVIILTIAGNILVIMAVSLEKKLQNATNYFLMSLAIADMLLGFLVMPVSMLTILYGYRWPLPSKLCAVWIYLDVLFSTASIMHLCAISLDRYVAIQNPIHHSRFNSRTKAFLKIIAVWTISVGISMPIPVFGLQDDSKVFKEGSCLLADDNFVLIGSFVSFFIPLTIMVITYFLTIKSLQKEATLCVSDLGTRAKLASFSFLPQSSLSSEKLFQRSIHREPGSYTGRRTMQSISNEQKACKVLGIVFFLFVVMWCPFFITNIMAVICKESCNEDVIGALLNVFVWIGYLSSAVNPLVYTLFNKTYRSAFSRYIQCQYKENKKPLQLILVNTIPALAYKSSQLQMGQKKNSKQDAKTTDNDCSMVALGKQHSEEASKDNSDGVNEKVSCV
Source text: as §1

[4] = molecular target: T1, 5-HT1A (Homo sapiens, UniProt P08908); experiment: 5-HT1A receptor competitive binding, [3H]8-OH-DPAT; details: partially purified human protein expressed in CHO cells, nonspecific 5-HT, 30° C., 0.5 h, read-out: Ki of (±)-14, 5-HT1A
T1 sequence (P08908 1-422): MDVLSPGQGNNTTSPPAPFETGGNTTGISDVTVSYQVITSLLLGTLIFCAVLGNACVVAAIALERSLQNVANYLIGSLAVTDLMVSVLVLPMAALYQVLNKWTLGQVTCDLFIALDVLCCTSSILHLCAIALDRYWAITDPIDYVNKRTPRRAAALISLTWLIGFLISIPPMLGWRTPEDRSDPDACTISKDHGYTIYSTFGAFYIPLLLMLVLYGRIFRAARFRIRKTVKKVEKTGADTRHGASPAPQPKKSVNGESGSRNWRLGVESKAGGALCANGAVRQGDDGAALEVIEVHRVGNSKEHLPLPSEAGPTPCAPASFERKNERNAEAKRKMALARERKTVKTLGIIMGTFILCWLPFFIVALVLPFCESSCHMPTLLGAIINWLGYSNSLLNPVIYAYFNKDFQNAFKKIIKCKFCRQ
Source text: as §1

[5] = molecular target: T2, NET (Rattus norvegicus, UniProt Q9WTR4); experiment: NET competitive binding assay with [3H]nisoxetine, rat brain cortical homogenates; details: partially purified rat brain cortical homogenates, 0° C., 4 h, Ki derived from IC50
T2 construct: The protocol employed partially purified rat brain cortical homogenates; from tissue; host or cells: rat brain cortex homogenate
T2 sequence (Q9WTR4 1-597): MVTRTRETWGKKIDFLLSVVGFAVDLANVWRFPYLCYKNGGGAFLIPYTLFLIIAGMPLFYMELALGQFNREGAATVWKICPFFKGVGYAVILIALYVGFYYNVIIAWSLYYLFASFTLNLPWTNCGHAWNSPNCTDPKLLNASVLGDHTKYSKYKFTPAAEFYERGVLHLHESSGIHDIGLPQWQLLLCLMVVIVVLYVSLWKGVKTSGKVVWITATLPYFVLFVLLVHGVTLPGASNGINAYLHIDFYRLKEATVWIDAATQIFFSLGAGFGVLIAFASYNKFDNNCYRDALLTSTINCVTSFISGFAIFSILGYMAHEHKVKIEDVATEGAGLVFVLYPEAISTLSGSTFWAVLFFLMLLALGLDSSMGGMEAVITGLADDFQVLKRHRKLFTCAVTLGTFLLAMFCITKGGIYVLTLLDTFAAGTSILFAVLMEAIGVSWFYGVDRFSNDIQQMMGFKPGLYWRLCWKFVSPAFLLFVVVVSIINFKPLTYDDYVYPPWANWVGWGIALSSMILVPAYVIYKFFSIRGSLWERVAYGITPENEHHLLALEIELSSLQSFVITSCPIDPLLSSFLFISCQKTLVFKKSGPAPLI
Procedure: The protocol employed partially purified rat brain cortical homogenates, [^3H]nisoxetine, incubated 0° C., 4 h; with nonspecific binding determined with added 1 microM of desipramine (DMI) and desipramine as the parallel positive control.

Row | Compound | pKi [5] | pKi [1] | pKi [2] | pKi [3] | pKi [4]
1 | COCC1CNCCN1c1nccc2ccccc12 (racemic) [(±)-14, (±)-1-[2′-(Methoxymethyl)piperazin-1′-yl] isoquinoline] | 8.38 | 5.75 | 5.80 | < 5.00 | < 5.00
2 | FCCCOCC1CNCCN1c1nccc2ccccc12 (racemic) [(±)-37] | 7.15 |  |  |  | 
3 | c1ccc(CC2CNCCN2c2nccc3ccccc23)cc1 (racemic) [Compound 9, (±)-1-[2′-(Benzyl)piperazin-1′-yl]isoquinoline] | 7.79 |  |  |  | 

The next lines start with results.

Row | pKi [5] | Compound | pKi [1] | pKi [2] | pKi [3] | pKi [4]
4 | 7.85 | COCC1CNCCN1c1nc(Cl)cc2ccccc12 (racemic) [Compound 17, (±)-3-Chloro-1-[2′-(methoxymethyl)piperazin-1′-yl]isoquinoline] |  |  |  | 
5 | 8.17 | FCCCOC[C@@H]1CNCCN1c1nccc2ccccc12 [(S)-37, (S)-1-[2′-[(3-fluoropropoxy)methyl]piperazin-1′-yl]isoquinoline] |  |  |  | 
